Data reported in patent US20050267077A1 (priority 2004, published 2005).

Assays:
Long-Evans rats = assay: 8 hour retention test on a twelve-arm radial maze (spatial memory); format: in vivo, rat; details: 60 min prior to information session, vs vehicle (p<0.02)
Protocol: 12-arm maze test: Behavioral testing was conducted by an experimenter who was blind to drug treatment. 12 Long-Evans rats trained to use a win-shift strategy were given an information trial. During the information trial, 5 of the 12 arms of the 12 arm maze were blocked so that rats were not able to consume food from those blocked arms but could obtain food from each of the 7 open arms. After this session rats were moved to their home cage and placed back in the animal holding room. […] A retroactive memory error is made when the rat enters an arm that was […] on the information trial.
. Physiological saline (NaCl) was used as vehicle. […]

rats = assay: Object Recognition Task (episodic memory), 6 hour delay; details: for performance in the object recognition task: 6 h delay; for Recognition Score: vehicle 60%; for disruption of behavior: first four rats
Protocol: It is based on rodents' natural preference for exploring novel objects over familiar objects. The experimental protocol is as follows:
The experiment takes place over a total of 4 days. Objects used for testing included square 60-mL clear glass tablet bottles with a black phenolic cap (“bottle”) or […] high, 1¼-inch interior diameter aluminum electrical metal tubing conduit couplings (“conduit”). On the first 3 days, the rat was placed into a test box for 15 minutes of habituation. On the fourth day, two identical copies of the same object were arranged in the box, one in each of the near corners about ½ inch from the walls—two bottles for half of the rats, two conduits for the other half. The rat was brought to the test room, placed in the middle of the box facing the center of the back wall, and allowed to explore the objects for a 3-minute information trial, after which it was returned to its home cage and to the housing room. After a specified delay, one copy of the original object (“familiar,” not the copy already encountered) and one copy of the other object (“novel”) were arranged in the near corners, with positions counterbalanced to avoid bias, and the rat was placed back in the box for a recognition trial. […] The result of scoring is the time spent with the novel object, expressed as a %-age number (the “Recognition Score”)
Normal rats spend more time exploring the novel object, indicating memory for the sample object. Increases in the length of the delay, however, reduce the rat's ability to distinguish between the two objects in the recognition trial. For the testing of cognition-enhancing agents, a delay or inter-trial interval (ITI) is typically chosen at which complete forgetting normally occurs (i.e. where the time spent exploring both the novel and familiar object is equal), as this allows for considerable room for improvement in performance.
Both drugs were administered by intraperitoneal (IP) injection.
To generate a dose-effect curve for galantamine, various doses of this compound were administered to rats by IP injection 30 minutes prior to the information trial and compared to vehicle (0.5%-methyl cellulose)-treated controls (FIG. 7A).

[1] = cited from earlier work

SMILES: CCCCP(=O)(O)CCCN [ABPA, 3-aminopropyl-(n-butyl)-phosphinic acid]
- retention test performance on the 12-arm maze (Long-Evans rats; 150 mg/kg ABPA IP): improved performance
- performance in the object recognition task (rats; ABPA 3 and 30 mg/kg IP, 30 min prior to information trial, vs saline): no beneficial effect
- performance in the object recognition task (rats; ABPA 10, 100, 170, and 300 mg/kg IP, 30 min prior to information trial, vs saline): significantly enhanced performance
- Recognition Score (rats; ABPA alone 3 mg/kg, Example 5 rivastigmine interaction study): 58%
- Recognition Score (rats; ABPA alone 3 mg/kg, Example 6 galantamine interaction study): 58%

SMILES: COc1ccc2c3c1O[C@H]1C[C@@H](O)C=C[C@@]31CCN(C)C2 [galantamine]
- disruption of behavior (rats; galantamine 3 mg/kg IP): gross disruption of behavior
- Recognition Score (rats; galantamine alone 0.17 mg/kg): 55%
- Recognition Score (rats; galantamine alone 0.3 mg/kg): 62%
- half-life in humans [1]: 5 to 6 h

SMILES: CCN(C)C(=O)Oc1cccc([C@H](C)N(C)C)c1 [rivastigmine]
- disruption of behavior (rats; rivastigmine 1 mg/kg IP): grossly disrupted behavior
- effect on memory in the object recognition task (rats; rivastigmine 0.01, 0.017, 0.03, 0.056, 0.17 and 0.3 mg/kg IP, vs vehicle): no significant effect on memory
- performance in the object recognition task (rats; rivastigmine 0.1 IP, 30 min prior, vs vehicle (p=0.056)): approached a significant improvement in performance
- Recognition Score (rats; rivastigmine alone 0.01 mg/kg): 55%
- Recognition Score (rats; rivastigmine alone 0.017 mg/kg): 59%
- half-life in humans [1]: about 1.5 h

SMILES: COc1cc2c(cc1OC)C(=O)C(CC1CCN(Cc3ccccc3)CC1)C2 (racemic) [donepezil, (±)-2,3-dihydro-5,6-dimethoxy-2-[[1-(phenylmethyl)-4-piperidinyl]methyl]-1H-inden-1-one]
- retention test performance on the 12-arm maze (Long-Evans rats; 3 mg/kg donepezil IP): improved performance
- performance in the object recognition task (rats; donepezil 1.7 mg/kg IP, 30 min prior to information trial): significantly improved performance
- adverse side effects in the rat (rats; donepezil doses higher than 1.7 mg/kg IP): began to produce adverse side effects
